Measurements as given in patent US20180362654A1, “Methods for Reducing or Preventing Growth of Tumors Resistant to EGFR and/or ErbB3 Blockade” (Regeneron Pharmaceuticals, Inc., priority 2015, published 2018).
One block for each compound: values may come before it.

Columns and labels:
FGFR3 = FGFR3 phosphorylation by anti-phosphotyrosine immunoprecipitation and western blot; assay type: cell-based, human; details: FaDu V2 cells; 25 nM AZD4547; 1 hour
Protocol: FIGS. 4A-4F provide evidence that FGFR3 is activated in FaDu resistant variant cell lines and maintains ERK signaling upon EGFR blockade. […] Active RTKs of note are boxed and labeled. The unlabeled spots on the corners of the membranes are positive controls. […] The presence of FGFR3 and Src in the immunoprecipitates was assessed by western blot. […] Following treatment, cell lysates were subjected to western blot with antibodies against phospho-ERK, ERK, phospho-MET and MET. […] Following treatment, cell lysates were subjected to immunoprecipitation with anti-phosphotyrosine antibody 4G10 conjugated to agarose beads. The presence of FGFR3 and Src in the immunoprecipitates was assessed by western blot. […] Following treatment, cell lysates were subjected to western blot with antibodies against phospho-ERK, ERK, phospho-AKT and AKT.
To assess the tyrosine phosphorylation status of FGFR3-TACC3 fusion proteins in FaDu V1 and V2 cell lines, cells growing in 10 cm dishes were lysed in 1 ml of buffer (150 mM NaCl/20 mM Tris, pH 7.5/1% Triton X-100) containing Halt Protease and Phosphatase Inhibitor Cocktail (Thermo Scientific). […]

ERK = ERK activation by western blot (phospho-ERK); assay type: cell-based, human; details: REGN1400 5 μg/ml, REGN955 10 μg/ml, AZD4547 25 nM
Protocol: (§1) For analysis of cell signaling by western blot, tumor cells were treated with the following reagents: ErbB3 blocking REGN1400, EGFR blocking antibody REGN955, MEK inhibitor GSK1120212 (Selleckchem), FGFR TKI AZD4547 (Selleckchem), MET TKI PHA665752 (Sigma), PI3K inhibitor BYL719, human NRG1 (R&D Systems), human EGF (R&D Systems). Following treatment, cell lysates were subjected to western blot with the following antibodies: phospho-ErbB3 (Cell Signaling Technology (CST), cat. #4561), EGFR (CST, cat. #2646), phospho-EGFR (CST, cat. #2234), Akt (CST, cat. #9272), phospho-Akt (CST, cat. #4060), ERK (CST, cat. #4695), phospho-ERK (CST, cat. #4370), MET (CST, cat. #8198), phospho-MET (CST, cat. #3077), ErbB3 (CST, cad.#4754), phospho-FGFR (CST, cat. #3476).

AKT = AKT activation by western blot (phospho-AKT); assay type: cell-based, human; details: REGN1400 5 μg/ml, REGN955 10 μg/ml, AZD4547 25 nM
Protocol: as §1

NCI-H1975 cells = test: Tumor cell growth assay (MTS), NCI-H1975 cells expressing FGFR3-TACC3 fusion proteins; assay type: cell-based, human; details: 72 hours, 50 nM AZD9291
Protocol: (§2) The bar graphs show the relative cell growth in each treatment group, as determined by MTS assay. Error bars show the standard deviation, n=8. […] The bar graphs show the relative cell growth in each treatment group, as determined by MTS assay. Error bars show the SD, n=8. FIGS. 11C-11D respectively show SNU1076 or Detroit 562 cells expressing wild-type FGFR3 or FGFR3-TACC3 fusion proteins that were grown for 72 hours in the presence of vehicle or 5 μM PI3K inhibitor BYL719. The bar graphs show the relative cell growth in each treatment group, as determined by MTS assay. Error bars show the standard deviation, n=8. […] Cell lysates were prepared and subjected to western blot with antibodies against phospho-ERK, ERK, phospho-AKT, or AKT.
(§3) To assess tumor cell growth, 2-3,000 cells were plated in 96-well plates (n=8 replicate wells per treatment group) in serum-containing medium. The day after plating, the baseline (0 hour) cell number was determined by MTS assay using the CellTiter96 Aqueous One Solution Cell Proliferation Assay (Promega). […] At 72 hours, the final cell number was determined by MTS assay. The relative cell growth for each treatment group was determined by subtracting the baseline MTS reading from the final MTS reading. […]

SNU1076 cells = test: Tumor cell growth assay (MTS), SNU1076 cells expressing FGFR3-TACC3 fusion proteins; assay type: cell-based, human; details: 72 hours, 5 μM BYL719
Protocol: as §2, §3

Detroit 562 cells = test: Tumor cell growth assay (MTS), Detroit 562 cells expressing FGFR3-TACC3 fusion proteins; assay type: cell-based, human; details: 72 hours, 5 μM BYL719
Protocol: as §2, §3

MET = target: T1, MET (Homo sapiens, UniProt P08581); test: MET phosphorylation by western blot; assay type: cell-based; details: FaDu V2 cells; 100 nM PHA665752; 30 minutes
T1 construct: Fadu V2 cells that were treated for 30 minutes with control antibody; endogenous in cells
T1 sequence (P08581 25-1390): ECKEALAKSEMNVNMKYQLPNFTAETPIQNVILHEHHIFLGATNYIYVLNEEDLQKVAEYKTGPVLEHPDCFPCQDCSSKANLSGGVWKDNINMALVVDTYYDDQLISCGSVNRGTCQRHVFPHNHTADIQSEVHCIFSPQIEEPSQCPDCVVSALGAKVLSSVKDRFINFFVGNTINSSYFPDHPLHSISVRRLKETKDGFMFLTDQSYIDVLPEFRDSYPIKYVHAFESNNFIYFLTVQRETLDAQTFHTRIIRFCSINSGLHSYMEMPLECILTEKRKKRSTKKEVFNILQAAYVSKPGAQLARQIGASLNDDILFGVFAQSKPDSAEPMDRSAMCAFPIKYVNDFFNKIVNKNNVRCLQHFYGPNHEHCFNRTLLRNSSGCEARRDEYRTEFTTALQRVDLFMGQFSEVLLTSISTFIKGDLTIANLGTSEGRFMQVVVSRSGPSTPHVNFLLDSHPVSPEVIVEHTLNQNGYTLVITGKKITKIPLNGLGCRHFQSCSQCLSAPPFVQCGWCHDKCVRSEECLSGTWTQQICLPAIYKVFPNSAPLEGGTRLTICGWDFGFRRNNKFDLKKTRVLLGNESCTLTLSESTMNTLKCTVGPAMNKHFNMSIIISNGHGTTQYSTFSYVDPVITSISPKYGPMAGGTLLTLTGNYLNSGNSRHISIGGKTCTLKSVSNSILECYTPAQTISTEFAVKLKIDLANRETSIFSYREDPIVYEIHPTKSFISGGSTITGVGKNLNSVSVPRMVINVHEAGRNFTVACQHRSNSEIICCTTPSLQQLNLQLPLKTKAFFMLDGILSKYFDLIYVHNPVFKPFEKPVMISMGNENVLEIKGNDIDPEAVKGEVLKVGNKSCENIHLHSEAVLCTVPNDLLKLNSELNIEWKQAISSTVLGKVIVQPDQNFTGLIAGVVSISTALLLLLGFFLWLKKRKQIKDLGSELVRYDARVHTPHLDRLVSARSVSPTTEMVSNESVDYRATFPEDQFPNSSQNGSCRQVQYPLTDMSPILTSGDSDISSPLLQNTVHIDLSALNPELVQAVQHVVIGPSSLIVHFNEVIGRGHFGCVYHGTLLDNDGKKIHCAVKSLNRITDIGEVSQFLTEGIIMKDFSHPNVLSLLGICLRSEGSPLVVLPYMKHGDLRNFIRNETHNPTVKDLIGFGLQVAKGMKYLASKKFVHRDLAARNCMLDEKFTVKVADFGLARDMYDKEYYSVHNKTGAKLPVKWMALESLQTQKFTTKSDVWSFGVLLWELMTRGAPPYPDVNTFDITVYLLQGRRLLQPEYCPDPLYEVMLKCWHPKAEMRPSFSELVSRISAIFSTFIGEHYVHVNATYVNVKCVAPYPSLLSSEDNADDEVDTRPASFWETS
Description: Following treatment, cell lysates were subjected to western blot with antibodies against phospho-ERK, ERK, phospho-MET and MET. […] Following treatment, cell lysates were subjected to western blot with the following antibodies: phospho-ErbB3 (Cell Signaling Technology (CST), cat. #4561), EGFR (CST, cat. #2646), phospho-EGFR (CST, cat. #2234), Akt (CST, cat. #9272), phospho-Akt (CST, cat. #4060), ERK (CST, cat. #4695), phospho-ERK (CST, cat. #4370), MET (CST, cat. #8198), phospho-MET (CST, cat. #3077), ErbB3 (CST, cad.#4754), phospho-FGFR (CST, cat. #3476).

[1] = FaDu V2 cells, GSK1120212 100 nM, PHA665752 100 nM

SMILES: COc1cc(CCc2cc(NC(=O)c3ccc(N4CC(C)NC(C)C4)cc3)n[nH]2)cc(OC)c1 (stereo not shown) [AZD4547]
inhibition of FGFR3 phosphorylation (FGFR3): completely blocked FGFR3 phosphorylation
inhibition of ERK activation (ERK; FaDu V1 cells): either no effect or a partial effect
inhibition of ERK activation (ERK; [1]): either no effect or a partial effect
inhibition of AKT activation (AKT; FaDu V1 cells): no effect on AKT activation
inhibition of AKT activation (AKT; FaDu V2 cells, GSK1120212 100 nM): no effect on AKT activation

SMILES: C=CC(=O)Nc1cc(Nc2nccc(-c3cn(C)c4ccccc34)n2)c(OC)cc1N(C)CCN(C)C [AZD9291]
growth inhibition in cells expressing FGFR3-TACC3 fusion proteins (NCI-H1975 cells): promote resistance

SMILES: Cc1nc(NC(=O)N2CCC[C@H]2C(N)=O)sc1-c1ccnc(C(C)(C)C(F)(F)F)c1 [BYL719, alpelisib]
growth inhibition in cells expressing FGFR3-TACC3 fusion proteins (SNU1076 cells): neither of the FGFR3-TACC3 fusion proteins was able to confer substantial resistance
growth inhibition in cells expressing FGFR3-TACC3 fusion proteins (Detroit 562 cells): neither of the FGFR3-TACC3 fusion proteins was able to confer substantial resistance

inhibition of MET phosphorylation (MET): completely blocking MET phosphorylation
SMILES: Cc1[nH]c(/C=C2\C(=O)Nc3ccc(S(=O)(=O)Cc4c(Cl)cccc4Cl)cc32)c(C)c1C(=O)N1CCC[C@@H]1CN1CCCC1 [PHA665752]
inhibition of ERK activation (ERK; [1]): did not inhibit ERK activation
